Results reported in patent publication US11008346B2, “Beta-lactamase inhibitors” (priority 2014, dated 2021).
Like-named read-outs stand apart in the source and are kept apart here.

Key:
[1] = target: T1, SHV-5 β-lactamase (Klebsiella pneumoniae, UniProt P0A3M1); test: β-lactamase enzyme inhibition, SHV-5; format: biochemical
T1 construct: made in house; host or cells: E. coli BL21(DE3)
Description: (§1) For SHV-5, Kpc-2, p99AmpC and OXA-1 β-lactamases, E. coli BL21(DE3) bacterial cells carrying expression plasmids (expressed as native untagged proteins) for the individual β-lactamases were grown in 1 L of Superbroth (Teknova Inc. Hollister, Calif.) supplemented with 100 μg/ml kanamycin selection and 1×5052 (0.5% glycerol, 0.05% glucose and 0.2% α-lactose) at 35° C. for 18-20 hours. Cells were harvested by centrifugation (4,000×g, 4° C., 20 min), resuspended in 50 ml of 10 mM HEPES pH 7.5 ( 1/20 of the initial volume). The cells were lysed by sonication (5 pulses of 45 seconds) at 45 W on ice. The lysates were clarified by centrifugation at 10,000×g for 40 minutes at 4° C. Samples were diluted 5-fold in 50 mM sodium acetate pH 5.0, stored overnight at 4° C., after which they were centrifuged at 10,000×g for 30 minutes to clarify, and filtered through 0.45 μm filters. The samples were loaded onto a 5 ml Capto S sepharose cation exchange column (GE Healthcare) pre-equilibrated with 50 mM sodium acetate pH 5.0. The column was washed with 5 column volumes of 50 mM sodium acetate pH 5.0 to wash out unbound protein and a linear gradient of NaCl (0 to 500 mM) was used to elute the protein (over 16 CV) from the column. Fractions were assayed for […] activity using Centa (Calbiochem, Gibbstown, N.J.) or Nitrocefin (EMD Millipore chemicals, Darmstadt, Germany) as a reporter β-lactamase substrate for activity in the isolated fractions. Active fractions were pooled, concentrated and further purified by gel filtration chromatography on a Superdex 75 prep grade gel filtration column (GE Healthcare, Piscataway, N.J.) pre-equilibrated in 50 mM Hepes pH 7.5, 150 mM NaCl. Active fractions were pooled, concentrated, and quantitated by BCA protein determination (Thermo Scientific, Rockford, Ill.), dialyzed into PBS and frozen at −80° C. in 20% glycerol until use.
(§2) An equal volume of diluted enzyme stock was added, and the plates were incubated at 37° C. for 15 min. Nitrocefin was used as substrate for p99 AmpC, VIM-2 and OXA-1 and dispensed into each well at a final concentration of 100 μM. Absorbance at 486 nm was immediately monitored for 10 min using a Biotek Powerwave XS2 microplate spectrophotometer using the GEN5 software package (Biotek Instruments, Winooski Vt.). In an analogous fashion, imipenem was used as substrate for KPC-2 and Cefotaxime was used for SHV-5, while changes in absorbance upon hydrolysis of the β-lactam ring were monitored at 300 nm and 260 nm respectively in UV-transparent 96-well microtiter assay plates. Maximum rates of hydrolysis were compared to those in control wells (without inhibitors), and percentages of enzyme inhibition were calculated for each concentration of inhibitor. The concentration of inhibitor needed to reduce the initial rate of hydrolysis of substrate by 50% (IC50) was calculated as the residual activity of β-lactamase at 486 nm using GraFit version 7 kinetics software package (Erithacus Software, Surrey, UK).
(§3) Using the methodology described above, examples of the current invention were evaluated for their ability to inhibit β-lactamase enzymes from all four Ambler classifications (A through D). […] NT=Not tested.

[2] = target: T2, KPC-2 β-lactamase (Klebsiella pneumoniae, UniProt Q9F663); test: β-lactamase enzyme inhibition, KPC-2; format: biochemical
T2 construct: made in house; host or cells: E. coli BL21(DE3)
T2 sequence (Q9F663 25-293, looked up): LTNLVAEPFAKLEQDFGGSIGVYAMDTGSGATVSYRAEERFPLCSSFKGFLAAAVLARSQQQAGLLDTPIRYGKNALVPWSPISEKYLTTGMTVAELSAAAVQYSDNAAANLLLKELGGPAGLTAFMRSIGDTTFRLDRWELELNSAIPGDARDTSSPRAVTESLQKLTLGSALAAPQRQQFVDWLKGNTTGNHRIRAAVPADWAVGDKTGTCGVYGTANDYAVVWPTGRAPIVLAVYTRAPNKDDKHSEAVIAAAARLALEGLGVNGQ
Description: as §1, §2, §3

[3] = tested on: E. cloacae 144200 expressing Class C P99 AmpC; test: broth microdilution MIC, E. cloacae P99; format: cell-based; details: Fixed CAZ (ceftazidime) 4 μg/mL
Source text: (§4) To determine the ability of test compounds to potentiate the inhibition of the growth of bacterial strains that produce beta-lactamase enzymes, classic cell based broth microdilution MIC assays were employed. Six bacteria strains producing beta-lactamase enzymes were used: E. coli expressing the Class A Extended Spectrum Beta-Lactamase (ESBL) CTX-M-15, E. cloacae expressing the Class C P99, K. pneumoniae expressing the Class A carbapenemase KPC-3, P. aeruginosa expressing the Class B carbapenemase VIM-2, K pneumoniae expressing the class A carbapenemase KPC-2 and the class B carbapenemase VIM-4, and S. aureus producing the Class A penicillinase PC-1. The assay was conducted in Cation Adjusted Mueller Hinton Broth (CAMHB, BD #212322, BD Diagnostic Systems, Sparks, Md.). Bacteria strains were grown for 3-5 hours in CAMBH broth. Test compounds were added to a microtiter plate in 2-fold serial dilutions in CAMHB in a final concentration range of 32 μg/mL to 0.25 μg/ml. An overlay of CAMHB containing a Beta-lactam was added to the compounds at a final static concentration of 4 μg/ml. […] In addition to the titration of test compounds the MICs of a panel of control beta-lactams is also tested to ensure the strains are behaving consistently from test to test. Once the test compound and antibiotics are added the plates can be inoculated according to CLSI broth microdilution method. After inoculation the plates are incubated for 16-20 hours at 37° C., then the Minimal Inhibitory Concentration (MIC) of the test compound is determined visually.
(§5) Using the methodology described above, examples of the current invention were evaluated for their ability to inhibit the growth of β-lactamase-producing bacteria in the presence of a β-lactam antibiotic.
(§6) Representative results are shown in Table 4 where A represents an MIC of the fixed β-lactam antibiotic in the presence of >32 µg/mL of a β-lactamase inhibitor of exemplary compounds, B represents the MIC in the presence of between 8 and 32 µg/mL of a β-lactamase inhibitor of exemplary compounds, and C represents the MIC in the presence of ≤4 µg/mL of a β-lactamase inhibitor of exemplary compounds. NT=Not Tested.

[4] = target: T3, VIM-2 metallo β-lactamase (Pseudomonas aeruginosa, UniProt Q9K2N0); test: β-lactamase enzyme inhibition, VIM-2; format: biochemical; details: Nitrocefin 100 μM, 486 nm; 15 min at 37° C. preincubation; read-out: IC50 VIM-2 (Class B)
T3 construct: made in house; host or cells: E. coli BL21(DE3)
Description: For VIM-2 metallo β-lactamase, the procedure was identical with the following exceptions, first the protein was not pH adjusted to pH 5 with 50 mM sodium acetate. Second, the chromatography step was changed to a 5 ml Q sepharose anion exchange column pre-equilibrated with 50 mM Hepes pH 7.5, and elution of the protein was achieved by a linear gradient of NaCl (0-600 mM). Finally, the VIM-2 purification required a second run (3rd step) on the Q sepharose anion exchange column to achieve acceptable purity (>90%).
as §2, §3

[5] = tested on: K. pneumoniae A-1797 expressing KPC-2 and VIM-4; test: broth microdilution MIC, K. pneumoniae KPC-2 and VIM-4; format: cell-based; details: Fixed Mero (meropenem) 4 μg/mL
Source text: as §4, §5, §6

[6] = target: T4, OXA-1 β-lactamase (Escherichia coli, UniProt P13661); test: β-lactamase enzyme inhibition, OXA-1; format: biochemical; details: Nitrocefin 100 μM, 486 nm; 15 min at 37° C. preincubation; read-out: IC50 OXA-1 (Class D)
T4 construct: made in house; host or cells: E. coli BL21(DE3)
T4 sequence (P13661 26-276): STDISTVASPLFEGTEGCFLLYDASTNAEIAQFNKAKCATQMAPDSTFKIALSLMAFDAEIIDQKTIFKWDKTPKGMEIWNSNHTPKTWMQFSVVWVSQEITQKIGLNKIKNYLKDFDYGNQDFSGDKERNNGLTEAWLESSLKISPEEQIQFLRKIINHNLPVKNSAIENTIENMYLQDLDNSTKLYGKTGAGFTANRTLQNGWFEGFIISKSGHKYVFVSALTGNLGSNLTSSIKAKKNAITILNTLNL
Description: as §1, §2, §3

[7] = tested on: E. coli ESBL4 expressing CTX-M-15; test: broth microdilution MIC, E. coli CTX-M-15; format: cell-based; details: Fixed CAZ (ceftazidime) 4 μg/mL
Source text: as §4, §5, §6

[8] = target: T5, p99 AmpC β-lactamase (Enterobacter cloacae, UniProt P05364); test: β-lactamase enzyme inhibition, p99 AmpC; format: biochemical
T5 construct: made in house; host or cells: E. coli BL21(DE3)
T5 sequence (P05364 21-381): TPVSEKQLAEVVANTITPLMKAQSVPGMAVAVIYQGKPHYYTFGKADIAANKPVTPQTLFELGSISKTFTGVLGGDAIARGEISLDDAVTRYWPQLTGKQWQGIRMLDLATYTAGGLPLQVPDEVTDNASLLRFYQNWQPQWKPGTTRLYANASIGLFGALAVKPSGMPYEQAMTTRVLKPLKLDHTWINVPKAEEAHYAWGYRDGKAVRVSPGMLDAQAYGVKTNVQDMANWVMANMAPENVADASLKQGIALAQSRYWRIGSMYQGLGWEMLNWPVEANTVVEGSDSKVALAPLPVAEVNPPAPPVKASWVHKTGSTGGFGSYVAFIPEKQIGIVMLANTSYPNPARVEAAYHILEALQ
Description: as §1, §2
Using the methodology described above, examples of the current invention were evaluated for their ability to inhibit β-lactamase enzymes from all four Ambler classifications (A through D).

[9] = tested on: K. pneumoniae 156319 expressing KPC-3; test: broth microdilution MIC, K. pneumoniae KPC-3; format: cell-based; details: Fixed Mero (meropenem) 4 μg/mL
Source text: as §4, §5, §6

[10] = imipenem substrate, 300 nm, 15 min at 37° C. preincubation, read-out: IC50 KPC-2 (Class A)

T1 sequence (P0A3M1 22-286): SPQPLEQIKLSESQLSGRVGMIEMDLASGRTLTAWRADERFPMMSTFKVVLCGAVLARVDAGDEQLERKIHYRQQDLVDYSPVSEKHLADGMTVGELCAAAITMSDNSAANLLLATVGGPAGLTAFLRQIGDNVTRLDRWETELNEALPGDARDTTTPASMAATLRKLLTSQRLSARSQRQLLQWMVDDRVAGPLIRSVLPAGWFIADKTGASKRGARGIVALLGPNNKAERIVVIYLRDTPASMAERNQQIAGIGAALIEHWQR

| SMILES | IC50 [1] | IC50 [2, 10] | MIC of exemplary compounds in presence of fixed β-lactams, E. cl. 144200 p99 AmpC [3] | IC50 [4] | MIC of exemplary compounds in presence of fixed β-lactams, K.P. A-1797 KPC-2 VIM-4 [5] | IC50 [6] | MIC of exemplary compounds in presence of fixed β-lactams, E. coli ESBL4 CTX-M-15 [7] | IC50 [8] | MIC of exemplary compounds in presence of fixed β-lactams, K.P. 156319 KPC-3 [9] | IC50 [2] |
| --- | --- | --- | --- | --- | --- | --- | --- | --- | --- | --- |
| N#CCCC(=O)N[C@H]1Cc2cc(F)c(F)c(C(=O)O)c2OB1O [Example 49, (R)-3-(3-Cyano-propionylamino)-6,7-difluoro-2-hydroxy-3,4-dihydro-2H-benzo[e][1,2]oxaborinine-8-carboxylic acid] | < 100 nM | < 100 nM | C (C represents the MIC in the presence of ≤4 g/mL of a β-lactamase inhibitor) | 1000 to 10000 nM | B (B represents the MIC in the presence of between 8 and 32 g/mL of a β-lactamase inhibitor) | < 100 nM | C (C represents the MIC in the presence of ≤4 g/mL of a β-lactamase inhibitor) | 100 to 1000 nM | C (C represents the MIC in the presence of ≤4 g/mL of a β-lactamase inhibitor) |  |
| CS(=O)(=O)NCCC(=O)N[C@H]1Cc2ccc(F)c(C(=O)O)c2OB1O [Example 48, (R)-7-Fluoro-2-hydroxy-3-(3-methanesulfonylamino-propionylamino)-3,4-dihydro-2H-benzo[e][1,2]oxaborinine-8-carboxylic acid] | < 100 nM | < 100 nM | C (C represents the MIC in the presence of ≤4 g/mL of a β-lactamase inhibitor) | 100 to 1000 nM | B (B represents the MIC in the presence of between 8 and 32 g/mL of a β-lactamase inhibitor) | < 100 nM | C (C represents the MIC in the presence of ≤4 g/mL of a β-lactamase inhibitor) | < 100 nM | C (C represents the MIC in the presence of ≤4 g/mL of a β-lactamase inhibitor) |  |
| CC(=O)CCC(=O)N[C@H]1Cc2cc(F)c(F)c(C(=O)O)c2OB1O [Example 50, (R)-6,7-Difluoro-2-hydroxy-3-(4-oxo-pentanoylamino)-3,4-dihydro-2H-benzo[e][1,2]oxaborinine-8-carboxylic acid] | < 100 nM | < 100 nM | C (C represents the MIC in the presence of ≤4 g/mL of a β-lactamase inhibitor) | 100 to 1000 nM | B (B represents the MIC in the presence of between 8 and 32 g/mL of a β-lactamase inhibitor) | < 100 nM | C (C represents the MIC in the presence of ≤4 g/mL of a β-lactamase inhibitor) | 100 to 1000 nM | B (B represents the MIC in the presence of between 8 and 32 g/mL of a β-lactamase inhibitor) |  |
| NS(=O)(=O)CCC(=O)N[C@H]1Cc2cccc(C(=O)O)c2OB1O [Example 35, (R)-2-Hydroxy-3-(3-sulfamoyl-propionylamino)-3,4-dihydro-2H-benzo[e][1,2]oxaborinin-8-carboxylic acid] | < 100 nM |  | C (C represents the MIC in the presence of ≤4 g/mL of a β-lactamase inhibitor) | 100 to 1000 nM | C (C represents the MIC in the presence of ≤4 g/mL of a β-lactamase inhibitor) | < 100 nM | C (C represents the MIC in the presence of ≤4 g/mL of a β-lactamase inhibitor) | < 100 nM | C (C represents the MIC in the presence of ≤4 g/mL of a β-lactamase inhibitor) | < 100 nM |
| CC(=O)CC(=O)CCC(=O)N[C@H]1Cc2cccc(C(=O)O)c2OB1O [Example 41, (R)-3-(4,6-Dioxo-heptanoylamino)-2-hydroxy-3,4-dihydro-2H-benzo[e][1,2]oxaborinine-8-carboxylic acid] | < 100 nM | 100 to 1000 nM | C (C represents the MIC in the presence of ≤4 g/mL of a β-lactamase inhibitor) | < 100 nM | C (C represents the MIC in the presence of ≤4 g/mL of a β-lactamase inhibitor) | < 100 nM | C (C represents the MIC in the presence of ≤4 g/mL of a β-lactamase inhibitor) | < 100 nM | B (B represents the MIC in the presence of between 8 and 32 g/mL of a β-lactamase inhibitor) |  |
| CC(C)(C)C(=O)CCC(=O)N[C@H]1Cc2cccc(C(=O)O)c2OB1O [Example 40, (R)-3-(5,5-Dimethyl-4-oxo-hexanoylamino)-2-hydroxy-3,4-dihydro-2H-benzo[e][1,2]oxaborinine-8-carboxylic acid] | < 100 nM | < 100 nM | C (C represents the MIC in the presence of ≤4 g/mL of a β-lactamase inhibitor) | 1000 to 10000 nM | B (B represents the MIC in the presence of between 8 and 32 g/mL of a β-lactamase inhibitor) | < 100 nM | C (C represents the MIC in the presence of ≤4 g/mL of a β-lactamase inhibitor) | < 100 nM | B (B represents the MIC in the presence of between 8 and 32 g/mL of a β-lactamase inhibitor) |  |
